# PubChem BioAssay (NCI)
#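 Briefly, cells in 96-well plates were exposed to five compound concentrations for 48 h, and endpoints were estimated by linear interpolation. TGI: concentration producing complete growth inhibition.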
# Experiments:
# Test in all cases: NCI anticancer screen, dose series, 48 h
# MDA-MB-435 = tested on: MDA-MB-435
# K-562 leukemia = tested on: K-562 leukemia
# DU-145 prostate = tested on: DU-145 prostate
# U251 CNS = tested on: U251 CNS
# LOX IMVI melanoma = tested on: LOX IMVI melanoma
# A549 NSCLC = tested on: A549 NSCLC
# OVCAR-5 ovarian = tested on: OVCAR-5 ovarian
# MALME-3M melanoma = tested on: MALME-3M melanoma
# OVCAR-8 ovarian = tested on: OVCAR-8 ovarian
# TK-10 renal = tested on: TK-10 renal
# MDA-MB-231 breast = tested on: MDA-MB-231 breast
# RPMI-8226 leukemia = tested on: RPMI-8226 leukemia
# SNB-19 CNS = tested on: SNB-19 CNS
# UACC-257 melanoma = tested on: UACC-257 melanoma
# HOP-92 NSCLC = tested on: HOP-92 NSCLC
# SK-MEL-5 melanoma = tested on: SK-MEL-5 melanoma
# OVCAR-3 ovarian = tested on: OVCAR-3 ovarian
# SW-620 colon = tested on: SW-620 colon
# M14 melanoma = tested on: M14 melanoma
# KM12 colon = tested on: KM12 colon
# ACHN renal = tested on: ACHN renal
# UO-31 renal = tested on: UO-31 renal
# SK-OV-3 ovarian = tested on: SK-OV-3 ovarian
# BT-549 breast = tested on: BT-549 breast
# NCI/ADR-RES ovarian = tested on: NCI/ADR-RES ovarian
# HOP-62 NSCLC = tested on: HOP-62 NSCLC
# NCI-H23 lung = tested on: NCI-H23 lung
# A498 renal = tested on: A498 renal
# SF-539 CNS = tested on: SF-539 CNS
# OVCAR-4 ovarian = tested on: OVCAR-4 ovarian
# PC-3 prostate = tested on: PC-3 prostate
# SR leukemia = tested on: SR leukemia
# T-47D breast = tested on: T-47D breast
# HS 578T breast = tested on: HS 578T breast
# IGROV1 ovarian = tested on: IGROV1 ovarian
# NCI-H226 lung = tested on: NCI-H226 lung
# HL-60(TB) leukemia = tested on: HL-60(TB) leukemia
# MOLT-4 leukemia = tested on: MOLT-4 leukemia
# SK-MEL-28 melanoma = tested on: SK-MEL-28 melanoma
# SF-268 CNS = tested on: SF-268 CNS
# HT29 colon = tested on: HT29 colon
# HCT-116 colon = tested on: HCT-116 colon
# NCI-H460 lung = tested on: NCI-H460 lung
# RXF 393 renal = tested on: RXF 393 renal
# HCT-15 colon = tested on: HCT-15 colon
# EKVX NSCLC = tested on: EKVX NSCLC
# CAKI-1 renal = tested on: CAKI-1 renal
# SN12C renal = tested on: SN12C renal
# MCF7 breast = tested on: MCF7 breast
# SF-295 CNS = tested on: SF-295 CNS
# CCRF-CEM leukemia = tested on: CCRF-CEM leukemia
# NCI-H522 lung = tested on: NCI-H522 lung
# SNB-75 CNS = tested on: SNB-75 CNS
# COLO 205 colon = tested on: COLO 205 colon
# MDA-N = tested on: MDA-N
# UACC-62 melanoma = tested on: UACC-62 melanoma
# 786-0 renal = tested on: 786-0 renal
# SK-MEL-2 melanoma = tested on: SK-MEL-2 melanoma
smiles,measurement,setting,value
Cc1c(C)c(S(=O)(=O)N(CCCCCON)OCCCN)c(C)c2c1OC(C)(C)CC2,TGI,MDA-MB-435,24.8 µM
same,TGI,K-562 leukemia,> 40.3 µM
same,TGI,DU-145 prostate,17.5 µM
same,TGI,U251 CNS,25.7 µM
same,TGI,LOX IMVI melanoma,22.5 µM
same,TGI,A549 NSCLC,26.1 µM
same,TGI,OVCAR-5 ovarian,28.2 µM
same,TGI,MALME-3M melanoma,27.4 µM
same,TGI,OVCAR-8 ovarian,23.9 µM
same,TGI,TK-10 renal,27.5 µM
same,TGI,MDA-MB-231 breast,30.4 µM
same,TGI,RPMI-8226 leukemia,32 µM
same,TGI,SNB-19 CNS,28.9 µM
same,TGI,UACC-257 melanoma,29.5 µM
same,TGI,HOP-92 NSCLC,23 µM
same,TGI,SK-MEL-5 melanoma,29.5 µM
same,TGI,OVCAR-3 ovarian,28.7 µM
same,TGI,SW-620 colon,33.2 µM
same,TGI,M14 melanoma,18.8 µM
same,TGI,KM12 colon,27.3 µM
same,TGI,ACHN renal,30 µM
same,TGI,UO-31 renal,30.2 µM
same,TGI,SK-OV-3 ovarian,28.1 µM
same,TGI,BT-549 breast,29.3 µM
same,TGI,NCI/ADR-RES ovarian,31 µM
same,TGI,HOP-62 NSCLC,31.8 µM
same,TGI,NCI-H23 lung,29.6 µM
same,TGI,A498 renal,28.3 µM
same,TGI,SF-539 CNS,28.5 µM
same,TGI,OVCAR-4 ovarian,21.5 µM
same,TGI,PC-3 prostate,26.4 µM
same,TGI,SR leukemia,> 21.7 µM
same,TGI,T-47D breast,16.8 µM
same,TGI,HS 578T breast,41.7 µM
same,TGI,IGROV1 ovarian,23.4 µM
same,TGI,NCI-H226 lung,36.7 µM
same,TGI,HL-60(TB) leukemia,17.3 µM
same,TGI,MOLT-4 leukemia,30 µM
same,TGI,SK-MEL-28 melanoma,32.2 µM
same,TGI,SF-268 CNS,30.5 µM
same,TGI,HT29 colon,22.2 µM
same,TGI,HCT-116 colon,> 100 µM
same,TGI,NCI-H460 lung,22.4 µM
same,TGI,RXF 393 renal,25.1 µM
same,TGI,HCT-15 colon,28.5 µM
same,TGI,EKVX NSCLC,24.7 µM
same,TGI,CAKI-1 renal,16 µM
same,TGI,SN12C renal,32.4 µM
same,TGI,MCF7 breast,21.8 µM
same,TGI,SF-295 CNS,29.3 µM
same,TGI,CCRF-CEM leukemia,3.47 µM
same,TGI,NCI-H522 lung,31.6 µM
same,TGI,SNB-75 CNS,27.3 µM
same,TGI,COLO 205 colon,10.3 µM
same,TGI,MDA-N,27.3 µM
same,TGI,UACC-62 melanoma,27.4 µM
same,TGI,786-0 renal,> 100 µM
same,TGI,SK-MEL-2 melanoma,29.1 µM
